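1) Cells in 96-well plates. 2) Compound, 48 h, 5 concentrations. 3) Linear interpolation between surrounding doses. 4) Unreached endpoint = highest concentration. TGI is the concentration that stops growth completely.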
How the values were obtained:
Assay in all cases: DTP human tumour cell line panel, 48 h
[1] = tested on: NCI-H226 lung
[2] = tested on: HOP-62 NSCLC
[3] = tested on: U251 CNS
[4] = tested on: OVCAR-3 ovarian
[5] = tested on: HCT-15 colon
[6] = tested on: LOX IMVI melanoma
[7] = tested on: SF-539 CNS
[8] = tested on: SK-MEL-28 melanoma
[9] = tested on: UACC-257 melanoma
[10] = tested on: CAKI-1 renal
[11] = tested on: SN12C renal
[12] = tested on: MDA-N
[13] = tested on: 786-0 renal
[14] = tested on: SR leukemia
[15] = tested on: MDA-MB-231 breast
[16] = tested on: HCC-2998 colon
[17] = tested on: DU-145 prostate
[18] = tested on: KM12 colon

| Structure (SMILES) | TGI [1] [µM] | TGI [2] [µM] | TGI [3] [µM] | TGI [4] [µM] | TGI [5] [µM] | TGI [6] [µM] | TGI [7] [µM] | TGI [8] [µM] | TGI [9] [µM] | TGI [10] [µM] | TGI [11] [µM] | TGI [12] [µM] | TGI [13] [µM] | TGI [14] [µM] | TGI [15] [µM] | TGI [16] [µM] | TGI [17] [µM] | TGI [18] [µM] |
| --- | --- | --- | --- | --- | --- | --- | --- | --- | --- | --- | --- | --- | --- | --- | --- | --- | --- | --- |
| COc1ccc(N2C(=O)C3c4[nH]c5ccc(Br)cc5c4C4CCC(C(C)(C)C)CC4C3C2=O)cc1 (stereo not drawn) | > 100 | > 100 | > 100 | > 100 | > 100 | > 100 | > 100 | > 100 | > 100 | > 100 | > 100 | > 100 | > 100 | > 100 | > 100 | > 100 | > 100 | > 100 |
| CCOC(=O)C1(C(=O)OCC)OC(C)=NC1(C(=O)OC)C(=O)OC | > 100 | > 100 | > 100 | > 100 | > 100 | > 100 | > 100 | > 100 | > 100 | > 100 | > 100 | > 100 | > 100 | > 100 | > 100 | > 100 | > 100 | > 100 |
| CCOC(=O)C1=NN(c2ccc([N+](=O)[O-])cc2)[C@@]2(C)C[C@]3(c4ccccc4)N(c4ccc([N+](=O)[O-])cc4)N=C(C(=O)OCC)N3c3ccccc3N12 | > 100 | > 100 | > 100 | > 100 | > 100 | > 100 | > 100 | > 100 | > 100 | > 100 | > 100 | > 100 | > 100 | > 100 | 84.4 | > 100 | > 100 | > 100 |
| CC(C)=CCC/C(C)=C/CC/C(C)=C/CC/C(C)=C/CC/C(C)=C/CC/C(C)=C/CC/C(C)=C/CC/C(C)=C/CC/C(C)=C/CO | > 100 | > 100 | > 100 | > 100 | > 100 | > 100 | > 100 | > 100 | > 100 | > 100 | > 100 | > 100 | > 100 | > 100 | > 100 | > 100 | > 100 | > 100 |
| CC1(C)Cc2nc3c(cc2C(=O)C1C=N/C(C#N)=C(\N)C#N)C(=O)C(C=N/C(C#N)=C(\N)C#N)C(C)(C)C3 (stereo not drawn) | 12.7 | 6.94 | 3.14 | 11 | 4.48 | 5.7 | 2.41 | 4.58 | 6.73 | 3.54 | 5.23 | 11.8 | 3.47 | > 100 | 22.1 | 10.3 | 8.44 | 3.38 |
| O=C1C2=C(CC3=C(C2)CS(=O)(=O)C3)C(=O)C2=C1CC1=C(C2)CS(=O)(=O)C1 | > 59.7 | 37.3 | 31 | 9.03 | > 100 | > 59.9 | > 75.2 | > 70 | > 61.2 | > 69.5 | 30.2 | 20.8 | 40.6 | 18.6 | 27.3 | > 51.6 | > 87 | > 40.8 |
| CCOC(=O)C1=CCOc2cc(N(C)C)ccc21 | > 100 | > 100 | > 100 | 55.3 | > 100 | > 100 | > 100 | > 100 | > 100 | > 100 | > 100 | > 100 | > 100 | > 100 | > 100 | > 100 | > 100 | > 100 |
| CN(C)CCn1c(=O)c2ccc(NCCN3CCNCC3)c3c(=O)c4ccccc4n(c1=O)c23 | 15.2 | 22.8 | 24.8 | 25.1 | 25.3 | 11.9 | 9 | 25.5 | 17.3 | 10.2 | 14.6 | 18.9 | 14.1 | 0.322 | 11.8 | 12.8 | 17.7 | 16.4 |
| O=C1CSC(c2ccccc2[N+](=O)[O-])N1c1ccc(-c2ccc(-n3c(-c4ccccc4)nc4ccccc4c3=O)cc2)cc1 (stereo not drawn) | > 100 | > 100 | > 100 | > 100 | > 100 | > 100 | > 100 | > 100 | > 100 | > 100 | > 100 | > 100 | > 100 | > 100 | > 100 | > 100 | > 100 | > 100 |
| COc1ccccc1C1ON=C(c2ccc([N+](=O)[O-])cc2)N1C12CC3CC(CC(C3)C1)C2 (stereo not drawn) | > 100 | 71.9 | > 100 | > 100 | > 100 | > 100 | > 100 | > 100 | > 100 | > 100 | > 100 | > 100 | > 100 | > 100 | > 100 | > 100 | > 100 | > 100 |
| COC(=O)c1cc(C(=CCC[C@H]2CC[C@@]3(C)C(CCC4C3CC[C@@]3(C)C4CC[C@@H]3C(C)CCCC(C)C)C2)c2cc(Cl)c(O)c(C(=O)OC)c2)cc(Cl)c1O (stereo partly drawn) | > 10 | > 10 | > 10 | > 10 | > 10 | > 10 | > 10 | > 10 | > 10 | > 10 | > 10 | > 10 | > 10 | > 10 | > 10 | > 10 | > 10 | > 10 |
| NC(=O)NCCCC(NC(=O)OCCCCCCn1ccc(=O)[nH]c1=O)C(=O)O (stereo not drawn) | > 100 | > 100 | > 100 | > 100 | > 100 | > 100 | > 100 | > 100 | > 100 | > 100 | > 100 | > 100 | > 100 | > 100 | > 100 | > 100 | > 100 | > 100 |
| CC(C)O/N=C/c1cc(NC(=S)OC(C)C)ccc1Cl | > 51.2 | > 70.6 | > 70.2 | > 52.6 | > 66.1 | > 52.5 | > 78.8 | > 91.8 | > 100 | > 84.7 | > 57.9 | > 100 | > 65.6 | 45 | 62 | > 75.3 | > 100 | > 100 |
| C=C(CCC/C(C)=C/C=C/[C@@H](C)CCCc1ccoc1)C[C@@H]1OC(=O)[C@H](C)[C@@H]1O | 14.1 | 18.3 | 25.4 | 16 | 21.3 | 21.8 | 19.4 | 19.1 | 15.1 | 20.1 | 20.6 | 21.5 | 31.5 | > 50 | 16.9 | 24.8 | 23.5 | 16.1 |
| Cc1c2c(c(O)c3c(O)cccc13)C(=O)C1(O)C(O)=C(C(=O)NCNc3ccc(C(N)=O)cn3)C(=O)C(N(C)C)C1C2 (stereo not drawn) | > 100 | > 100 | 18.5 | 6.84 | 8.56 | > 100 | 7.42 | 14.6 | > 100 | 48.4 | > 100 | 98.5 | > 100 | 9.53 | > 100 | 8.66 | 20 | 15.6 |
| CCOC(=O)C1c2[nH]c3ccccc3c2CCN1C(=O)c1ccc(OC)o1 (stereo not drawn) | > 10 | > 10 | > 10 | > 10 | > 10 | > 10 | > 10 | > 10 | > 10 | > 10 | > 10 | > 10 | > 10 | > 10 | > 10 | > 10 | > 10 | > 10 |
